The target of one assay is mushroom tyrosinase. As to the kind of experiment: Tyrosinase inhibition (mushroom tyrosinase, L-DOPA, dopachrome absorbance at 475 nm). It is filed as biochemical. As to conditions: pH 6.8, 22° C., L-DOPA substrate; concentration with 40 to 60% inhibition in a minimum of two trials taken as IC50. How it is done:
Inhibition tests were carried out using aqueous solvents. Saturated stock solutions were prepared by at least 48 hours before the tests were run, which were diluted appropriately upon use in order to increase the solubilities in the aqueous solvents of the lipophilic test compounds.
Tests were carried out according to conventional procedure as follows. That is, 0.01 to 0.02 ml of a mushroom tyrosinase solution (1,375 U/ml, Sigma Chemical Co.), 0.98 to 0.99 ml of a 0.07M phosphate buffer solution (pH 6.8) and 1 ml of a test solution with or without a test compound listed in Table 2 were mixed, and the resulting mixture was incubated at 22° C. for 8 minutes. Then, 1 ml of a 0.03% aqueous solution of I-DOPA (L-3,4-dihydroxyphenylalanine having a purity of 99%, Sigma Chemical Co.) was added thereto. After incubation at 22° C. for 2 minutes, the amount of dopachrome in the reaction mixture was measured as absorbance (optical density) at 475 nm. The change in absorbance with or without different test samples was monitored every 30 seconds for the following 2.5 minutes using a Beckman DU-64 spectrophotometer (Beckman, Palo Alto, Calif.).
Each test compound was repeatedly tested until the 50% inhibitory concentration (IC50) (μg/ml) was determined.
The percent inhibition was calculated according to the following equation: [formula] where A=Absorbance
^A final=Final absorbance
^A initial=Initial absorbance

The test system of assay [1] is Mouse melanoma cell line (ATCC CRL 6322). As to the kind of experiment: Melanin formation inhibition in melanoma cells. It counts as cell-based. Conditions: for inhibition at 250 µM: 0.25 mM; for inhibition at 500 µM: 0.5 mM. How it is done:
Inhibitory effects on the melanin formation in melanoma cells were tested by the following procedure. Results obtained are shown in Table 5, together with the results obtained with arbutin as a control.
Mouse melanoma cell line (ATCC CRL 6322) was maintained in MEM medium (GIBCO BR, Gaitherburg, Md.) supplemented with 10% heat-inactivated fetal bovine serum described by Maeda (J. Cosmet. Chem., 42, 361 (1991)). More specifically, the cells were cultured on 6-well tissue culture plates (Falcon 3046) with various concentrations of each test compound listed in Table 5 below at 37° C., and at a humidity of 98%, in 5% carbon dioxide atmosphere for 4 days. Cell viability in all tests was determined by Trypan Blue exclusion. The culture media were aspirated, and 1.0 ml of an aqueous 0.25% trypsin solution and an aqueous 0.2% ethylenediaminetetraacetic acid (EDTA) solution were added to each well. Detached cells were placed in an Eppendorf tube, and centrifuged at 1,000 rpm for 5 minutes. The cell pellets thus obtained were mixed with 5% trichloroacetic acid, agitated well, and centrifuged 10,000 rpm to deposit melanin. The melanin pellets were mixed with 1N NaOH for dissolution, and the absorbance at 475 nm was measured, from which melanin formation inhibition (%) was calculated.

Another assay concerns tyrosinase. As to the kind of experiment: Tyrosinase inhibition (long exposure), melanin formation from L-tyrosine. It counts as biochemical. Conditions: test solution 200 μg/ml, pH 6.8, 37° C., L-tyrosine substrate. How it is done: Tyrosinase inhibitory effects of the active compounds of this invention on long exposure were determined using […]. The method of Chen et al. (J. Agric. Food Chem., 39, 8, 1991) was adapted and scaled down for spectrophotometric analysis on a Bio Rad Model 3550 Microplate Reader (Bio-Rad, Richmond, Calif.), which uses 96-well plates. 20 μl of tyrosinase solution containing 0.02 mg/ml of tyrosinase (Sigma Chemical Company) and 76 μl of a test solution of citronellol, geraniol, or farnesol, adjusted to 200 μg/ml with a phosphate buffer solution (pH 6.8) were added to each well. After incubation at 37° C. for 8 minutes, 1 mM L-tyrosine (Sigma Chemical Company) was added as a substrate. Absorbance at 490 nm was measured every 60 seconds for up to 120 minutes to determine how much the amount of melanin produced from tyrosine substrate decreased as a result of the tyrosinase inhibition.

[2] abbreviates: Mus musculus, 96 h, 4 days, 37° C.

Converted amounts (≈) assume the structure as drawn. Structures can show the parent of a compound that is named as a salt.

The IC50 is the midpoint of a concentration-inhibition curve. By inhibition is commonly meant the relative decrease from the control value, in per cent. Low readings indicate little suppression, high ones strong suppression.

Take `OC[C@H]1O[C@@H](Oc2ccc(O)cc2)[C@H](O)[C@@H](O)[C@@H]1O` [Arbutin, reference compound]: the IC50 at mushroom tyrosinase stood at 63 µg/mL (≈ 231 µM). Further, the inhibition at 125 µM in assay [1] (Mus musculus, 96 h, 0.125 mM, 4 days, 37° C.) came to 58%. Also, in assay [1] (setting [2]), the inhibition at 250 µM was 53%. For the same compound, the “melanin formation inhibition in melanoma cells” value in assay [1] (summary of Table 5, aqueous system) is reported as “exhibited higher inhibitory effects than the active compounds of the present invention”.
For the compound `CC(C)=CCCC(C)CC=O` (centres unmarked) [Citronellal], on mushroom tyrosinase, the IC50 turned out to be 9.4 µg/mL (≈ 60.9 µM).
Turning to `CC(C)=CCCC(C)CCO` (centres unmarked) [Citronellol], the “Inhibition Ratio (%) on Melanin Formation” value (shortened to “Inhibition Ratio (%)”) came to 0% in the assay with tyrosinase (0 minute), 39.6% in the assay on tyrosinase (30 minute) and 43.8% in the assay on tyrosinase (120 minute). Also, the IC50 on mushroom tyrosinase is 6.3 µg/mL (≈ 40.3 µM). In assay [1] (setting [2]), this compound gave an inhibition at 250 µM of 25%. The inhibition at 500 µM in assay [1] (setting [2]) was 25%.
Turning to `CC(C)=CCCC(C)CC#N` (centres unmarked) [Citronellyinitrile, citronellylnitrile], the IC50 against mushroom tyrosinase is 9.4 µg/mL (≈ 62.1 µM).
On the same count and under the same terms, under `CC(=O)OCCC(C)CCC=C(C)C` (centres unmarked) [Citronellyl acetate] stands 18.8 µg/mL; under `CC(C)=CCCC(C)CCOC(=O)c1ccccc1` (centres unmarked) [Citronellyl benzoate], 6.3 µg/mL (≈ 24.2 µM).
Still for that read-out and setting: next, `CCCC(=O)OCCC(C)CCC=C(C)C` (centres unmarked) [Citronellyl butyrate]: 37.5 µg/mL (≈ 166 µM); `CC(C)=CCCC(C)CCOC=O` (centres unmarked) [Citronellyl formate]: 6.3 µg/mL.
Compound `CC(C)=CCCC(C)CCOC(=O)C(C)C` (centres unmarked) [Citronellyl isobutyrate] yielded an IC50 against mushroom tyrosinase of 6.3 µg/mL (≈ 27.8 µM). In assay [1] (setting [2]), this compound registered an inhibition at 250 µM of 31% and an inhibition at 500 µM of 56%.
In turn, `CCC(=O)OCCC(C)CCC=C(C)C` (centres unmarked) [Citronellyl propionate] returned an IC50 against mushroom tyrosinase of 12.5 µg/mL (≈ 58.9 µM).
Regarding `CCCCCCCCCCO` [Decanol], the IC50 at mushroom tyrosinase was 12.5 µg/mL (≈ 79 µM).
`C=CC(C)CCCC(C)(C)O` (centres unmarked) [Dihydromyrcenol]: the concentration for half-maximal inhibition (IC50) on mushroom tyrosinase came to 12.5 µg/mL (≈ 80 µM).
Consider `CC(C)=CCCC(C)=CCCC(C)=CCO` [Farnesol], for which the “Inhibition Ratio (%)” value with tyrosinase (0 minute) amounted to 0%; in the assay with tyrosinase (30 minute), 23.6%; in the assay with tyrosinase (120 minute), 31.9%. The IC50 against mushroom tyrosinase amounted to 12.5 µg/mL (≈ 56.2 µM).
For the compound `CC(C)=CCCC(C)=CCCC(C)=CCOC(=O)c1ccccc1` [Farnesyl benzoate], on mushroom tyrosinase, the IC50 stood at 25.0 µg/mL (≈ 76.6 µM).
At mushroom tyrosinase, `CC(C)=CCCC(C)=CCCC(C)=CCOC(=O)C(C)C` [Farnesyl isobutyrate] displayed an IC50 of 12.5 µg/mL (≈ 42.7 µM).
Still for that read-out and setting: under `CC(C)=CCCC(C)=CCCC(C)=CCOC(=O)Cc1ccccc1` [Farnesyl phenylacetate] stands 12.5 µg/mL (≈ 36.7 µM).
Consider `CC(C)=CCC/C(C)=C/CO` [Geraniol], for which the “Inhibition Ratio (%)” value in the assay with tyrosinase (0 minute) came out at 0%; in the assay with tyrosinase (30 minute), 37.3%; in the assay on tyrosinase (120 minute), 48.5%. On mushroom tyrosinase, this compound had an IC50 of 6.3 µg/mL (≈ 40.8 µM). Moreover, the inhibition at 250 µM in assay [1] (setting [2]) came to 30%. Further, in assay [1] (setting [2]), the inhibition at 500 µM is 18%.
In the case of `CC(C)=CCC/C(C)=C/COC(=O)C(C)C` [Geranyl isobutyrate], on mushroom tyrosinase, the IC50 stood at 12.5 µg/mL (≈ 55.7 µM).
Same read-out and setting: next, `C=CC(C)(O)CCC=C(C)CCC=C(C)C` (centres unmarked) [Nerolidol]: 12.5 µg/mL (≈ 56.2 µM); `CCCCCCCCO` [Octanol]: 12.5 µg/mL (≈ 96 µM).

The values are drawn from patent US5466718A, “Tyrosinase inhibitors” (Takasago Institute for Interdisciplinary, priority 1993, dated 1995).
